PMC12582325 (Proceedings of the National Academy of Sciences of the …, 2025)
Where “and” joins values, the source holds several entries; their conditions need not be identical. Equal values may be shown once. Entries after “also recorded” stand apart in the source; their conditions may differ. Read-outs that look alike come from different tables or passages of the source. Where a SMILES comes first, the peptide text is derived from it.

Assays:
B. bassiana = type: cell-based, Beauveria bassiana
Bc.Ste2 [1] = type: cell-based, Botrytis cinerea
Hj Ste2 GPCR (Hj.Hpr2) = type: cell-based, Hypocrea jecorina
Bb.Ste2 [2] = type: cell-based, Beauveria bassiana; details: YPL1 library cocultured with Bb.Ste2 strain GEN88, 20 h, 2 d diploid enrichment, NextSeq 500
Hj.Hpr2 = type: cell-based, Hypocrea jecorina
Fg.Ste2 [3] = type: cell-based, Fusarium graminearum
[4] = system: F. oxysporum microconidia; assay: Germination of F. oxysporum microconidia; type: cell-based, Fusarium oxysporum f. sp. lycopersici 4287; design: Germination of F. oxysporum microconidia (data of Sup.Fig.10): unit not given here; details: for Germination of F. oxysporum microconidia (data of Sup.Fig.10): 400 μM pheromone, 13 h, at least 300 spores counted
Procedure: For F. oxysporum microconidia production, the strain was grown for 3 to 4 d in liquid potato dextrose broth (PDB) at 28 °C and 170 rpm. Germination media ([10]) was used for assessing the spore germination. RE was prepared by removing 2-wk-old tomato plants from vermiculite and washing the roots to remove any adhering substrates ([11]).
Supplementary Figure 10. Germination of F. oxysporum microconidia after 13 h of incubation in Germination Media at a cell density of […] microconidia/mL. The assay was performed with 400 μM of pheromone. All points represent the average of three biological replicates in which at least 300 spores were counted. Statistical significance was determined through one-way analysis of variance (ANOVA) with Dunnett’s multiple comparisons (✱p ≤ 0.05).

Bb.Ste2 [5] = type: cell-based, Beauveria bassiana
[6] = system: no_GPCR (negative control lacking a GPCR); type: cell-based, Saccharomyces cerevisiae; details: for barcode qPCR of diploids, no_GPCR x pheromone strain: consortium, individual replicates (n=3), listed as Fo.Pheromone
Fg.Ste2 [7] = type: cell-based, Fusarium graminearum; details: for Diploid frequency (%): 20 h coculture; for diploid frequency (%) / average (diploid colonies): GPCR strain GEN37 HIS; for average (diploid colonies): dilution 500, mean of Rep1-3
Fo.Ste2 [8] = type: cell-based, Fusarium oxysporum
Fo.Ste2 [9] = type: cell-based, Fusarium oxysporum; remark: listed apart in the source
[10] = system: F. oxysporum infection of tomato plants; assay: Tomato plant mortality assay; type: in vivo, Fusarium oxysporum / Solanum lycopersicum; details: groups of 10 plants; 3.2 × 10^6 microconidia/mL supplemented with pheromone once at inoculation; 50 d; Kaplan-Meier, log-rank
Procedure: Tomato plant infection assays were performed as described ([61]) with F. oxysporum microconidia and treatment inoculation as described above. Plants were transferred to a growth and plant survival was recorded daily for 50 d. Plant death was diagnosed as a complete collapse of the stem, without any green parts left. The Kaplan–Meier test was used to assess statistical significance of differences in survival among groups using the log-rank test in GraphPad Prism. The infection experiment was conducted two times with 10 plants per condition.

Mo Ste2 GPCR = type: cell-based, Magnaporthe oryzae; details: Fig. 1D mating matrix; pheromone secreted by MATa strain, GPCR in MATα strain; deep well plate, 20 h coculture; three technical plating replicates
Bc.Ste2 [11] = type: cell-based, Botrytis cinerea; remark: listed apart in the source
Fo.Ste2 [12] = assay: YeMaP Library-on-One: YPL1 pheromone library enrichment by mating, NGS; type: cell-based, Fusarium oxysporum; details: YPL1 library cocultured with Fo.Ste2 strain GEN90, 20 h, 2 d diploid enrichment, NextSeq 500
Bc.Ste2 [13] = type: cell-based, Botrytis cinerea; remark: listed apart in the source
Fo.Ste2 [14] = type: cell-based, Fusarium oxysporum; remark: listed apart in the source
Ca.Ste2 = type: cell-based, Candida albicans
[15] = system: F. oxysporum on tomato roots; assay: Tomato root inoculation and fluorescence microscopy of infected roots; type: in vivo, Fusarium oxysporum / Solanum lycopersicum; details: exogenous addition of pheromone to microconidia; 3 d after inoculation; fluorescence microscopy

In the case of `C[C@@H](O)[C@H](NC(=O)[C@H](CS)NC(=O)[C@@H](N)Cc1c[nH]c2ccccc12)C(=O)N[C@@H](Cc1c[nH]c2ccccc12)C(=O)N[C@@H](CCCNC(=N)N)C(=O)NCC(=O)N[C@@H](CCC(N)=O)C(=O)N1CCC[C@H]1C(=O)N[C@@H](CS)C(=O)N[C@@H](Cc1c[nH]c2ccccc12)C(=O)O` [Fo] (H-WCTWRGQPCW-OH; N-terminus assumed), the “Chemotropism of spores, group mean” value (B. bassiana) is reported as 11.13, the “chem. Index” value (B. bassiana) is reported as 14.29 and 11.03 and 8.06 and the “Chemotropic response in Bb germ tubes” value (B. bassiana; 20 hours) is reported as “significant chemotropic response”. For the same molecule, the “Fold change yEGFP” value (Bc.Ste2 [1]) was 1, the Hillslope (Bc.Ste2 [1]) was 0.5934 and the logEC50 (Bc.Ste2 [1]) was -8.991. The “Sup.Fig.3A Bc.Ste2 biosensor response, group mean” value (Bc.Ste2 [1]; 10 μM) was 1.713, the “Diploid frequency (%)” value (Hj Ste2 GPCR (Hj.Hpr2)) was 0.0% and the “Enrichment after mating, reads per million minus library before coculture” value (Bb.Ste2 [2]) was > 340,000 RPM. For the same molecule, the “barcode qPCR of diploids, Hj.HPR2 x pheromone strain” value (Hj.Hpr2) was 0, the “diploid barcode qPCR signal relative to control (2^-dCt)” value (Hj.Hpr2) was 0 and the “Fold change yEGFP” value (Fg.Ste2 [3]; Fg.Ste2 biosensor CPK366, 10 μM synthetic alpha pheromone, normalized to yEGFP background (receptor without pheromone), four biological replicates, Fig. 1E) was 187. For the same molecule, the “Activation of Fg.Ste2 biosensor, in words” value (Fg.Ste2 [3]; chemically synthesized pheromone) was “higher EC50 values”, the “Germination of F. oxysporum microconidia (data of Sup.Fig.10)” value (from here on “Germination of F. oxysporum microconidia”) ([4]; biological replicate 1 (first line)) was 23,4 and the “Germination of F. oxysporum microconidia” value ([4]; biological replicate 2 (second line)) was 23,3. The “Germination of F. oxysporum microconidia” value ([4]; biological replicate 3 (third line)) was 13,3, the “Mean Diff, Solvent vs. peptide” value ([4]; Sup.Fig.10, Dunnett's multiple comparisons test, n = 3) was 23,77 and the “Mean 2 (peptide), germination” value ([4]; Sup.Fig.10, Solvent control mean 43,77, mean of n = 3) was 20,00. The “Effect on F. oxysporum microconidia germination, in words” value ([4]; exogenous addition of 400 μM peptide, 13 h in Germination Media, 3.2 x 106 microconidia/mL) was “significant reduction”, the “Activation of Bb.Ste2 biosensor, in words” value (Bb.Ste2 [5]) was “higher EC50 values” and the “EC50 fold higher than that of the Bb pheromone” value (Bb.Ste2 [5]) was 3,910 fold. For the same molecule, the “Fold change yEGFP” value (Bb.Ste2 [5]) was 178, the Hillslope (Bb.Ste2 [5]) was 1.951 and the “half-maximal effective concentration (EC50)” value (Bb.Ste2 [5]) was 958 nM. The logEC50 (Bb.Ste2 [5]) was -6.019, the “barcode qPCR of diploids, no_GPCR x pheromone strain” value ([6]; SC-AS/Urea) was 0 and 0.004 and 0.005 and the “barcode qPCR of diploids, no_GPCR x pheromone strain” value ([6]; SC) was 0 (2×) and 0.007. The “diploid barcode qPCR signal relative to control (2^-dCt)” value ([6]; section A4, GPCR strain not given, mean of Bio1-3) was 0.036, the “diploid barcode qPCR signal relative to control (2^-dCt)” value ([6]; section A4, column EMPTY, replicate Bio1) was 0.014 and the “diploid barcode qPCR signal relative to control (2^-dCt)” value ([6]; section A4, column EMPTY, replicate Bio2) was 0.039. For the same molecule, the “diploid barcode qPCR signal relative to control (2^-dCt)” value ([6]; section A4, column EMPTY, replicate Bio3) was 0.054, the “diploid barcode qPCR signal relative to control (2^-dCt)” value ([6]; section Cm, GPCR strain not given, mean of Bio1-3) was 0.002 and the “diploid barcode qPCR signal relative to control (2^-dCt)” value ([6]; section Cm, column EMPTY, replicate Bio1) was 0.005. The “diploid barcode qPCR signal relative to control (2^-dCt)” value ([6]; section Cm, column EMPTY, replicate Bio2) was 0, the “diploid barcode qPCR signal relative to control (2^-dCt)” value ([6]; section Cm, column EMPTY, replicate Bio3) was 0 and the “diploid barcode qPCR signal relative to control (2^-dCt)” value ([6]; section SC, GPCR strain not given, mean of Bio1-3) was 0.0024. The “diploid barcode qPCR signal relative to control (2^-dCt)” value ([6]; section SC, column EMPTY, replicate Bio1) was 0, the “diploid barcode qPCR signal relative to control (2^-dCt)” value ([6]; section SC, column EMPTY, replicate Bio2) was 0 and the “diploid barcode qPCR signal relative to control (2^-dCt)” value ([6]; section SC, column EMPTY, replicate Bio3) was 0.007. The “diploid barcode qPCR signal relative to control (2^-dCt)” value ([6]; section Scramble, GPCR strain not given, mean of Bio1-3) was 0.0071, the “diploid barcode qPCR signal relative to control (2^-dCt)” value ([6]; section Scramble, column EMPTY, replicate Bio1) was 0 and the “diploid barcode qPCR signal relative to control (2^-dCt)” value ([6]; section Scramble, column EMPTY, replicate Bio2) was 0.015. For the same molecule, the “diploid barcode qPCR signal relative to control (2^-dCt)” value ([6]; section Scramble, column EMPTY, replicate Bio3) was 0.006, the “Diploid frequency (%)” value (Fg.Ste2 [7]; Fig. 1D mating matrix, pheromone secreted by MATa strain, GPCR in MATα strain, deep well plate, three technical plating replicates) was 0.5% and the “Diploid frequency (%)” value (Fg.Ste2 [7]; Fig. 1F validation in culture tubes, secreted pheromone, three biological and three technical replicates) was 8.8%. The “diploid frequency (%)” value (Fg.Ste2 [7]; co-culture replicate 1) was 1.34%, the “average (diploid colonies)” value (Fg.Ste2 [7]; co-culture replicate 1) was 5.67 and the “diploid frequency (%)” value (Fg.Ste2 [7]; co-culture replicate 2) was 1.11%. For the same molecule, the “average (diploid colonies)” value (Fg.Ste2 [7]; co-culture replicate 2) was 4.67, the “diploid frequency (%)” value (Fg.Ste2 [7]; co-culture replicate 3) was 0.95% and the “average (diploid colonies)” value (Fg.Ste2 [7]; co-culture replicate 3) was 4. For the same molecule, the “barcode qPCR of diploids, Fo.Ste2 x pheromone strain” value (Fo.Ste2 [8]) was 0.439, the “Sup.Fig.7B - Fo, group mean” value (Fo.Ste2 [8]; pH=6) was 1.65 and the “Sup.Fig.7B - Fo, group mean” value (Fo.Ste2 [8]; pH=7) was 0.8933. The “qPCR, Fo + Fo” value (Fo.Ste2 [8]; ph=6) was 0.386 and 0.413 and 0.467, the “qPCR, Fo + Fo” value (Fo.Ste2 [8]; ph=7) was 0.660 and 0.439 and 0.352 and the “Sup.Fig.7A - Fo, group mean” value (Fo.Ste2 [9]) was 0.3879 and 0.4515. The “average (diploid colonies)” value (Fo.Ste2 [9]) was 68 and 129.67 and 80.33, the “diploid frequency (%)” value (Fo.Ste2 [9]) was 19.26% and 31.27% and 21.99% and the “diploid frequency (%), Plates, Fo” value (Fo.Ste2 [9]) was 1.52% and 3.25% and 5.49%. The “diploid frequency (%), Plates, Fo” value (Fo.Ste2 [9]; pH=6) was 1.9% and 1.65% and 1.4%, the “diploid frequency (%), Plates, Fo” value (Fo.Ste2 [9]; pH=7) was 1.27% and 1.02% and 0.39% and the “Sup.Fig.7A - Fo, group mean” value (Fo.Ste2 [9]; ph=6) was 0.422. The “Sup.Fig.7A - Fo, group mean” value (Fo.Ste2 [9]; ph=7) was 0.4837, the Tomato plant survival [10] was “no significant difference in plant survival” and the “Diploid frequency (%)” value (Mo Ste2 GPCR) was 0.0%. The “Diploid frequency (%)” value (Bc.Ste2 [11]) was 0.1% and 0.3%, the “average (diploid colonies)” value (Bc.Ste2 [11]) was 0.67 and 1 and the “diploid frequency (%)” value (Bc.Ste2 [11]) was 0.19% and 0.28%. The “Enrichment after mating, reads per million minus library before coculture” value (Fo.Ste2 [12]) was > 340,000 RPM, the “Effect on activation of Bc.Ste2 by Bc pheromone, in words” value (Bc.Ste2 [13]; 0.0005 μM Bc pheromone in combination with 10 μM peptide, four biological replicates, Fig. 2G) was “do not differ significantly from Bc alone; also recorded: no such effect” and the “Bc.Ste2 + pheromones, biosensor response, group mean” value (Bc.Ste2 [13]; Bc + the named peptide, Bc alone mean 134.8, mean of n = 4) was 104.9. For the same molecule, the “Fold change yEGFP” value (Fo.Ste2 [14]) was 236, the Hillslope (Fo.Ste2 [14]) was 2.574 and the logEC50 (Fo.Ste2 [14]) was -7.534. The “Sup.Fig.3B Fo.Ste2 biosensor response, group mean” value (Fo.Ste2 [14]; 0.5 μM) was 1195000, the “Diploid frequency (%)” value (Ca.Ste2) was 0.0% and the “Adhesion of F. oxysporum germ tubes among themselves or to tomato roots” value [15] was “increased adhesion”.
